Measurements: the METLIN SMRT retention time set (Domingo-Almenara et al. 2019)

experiment: gradient 5% acetonitrile 3 min, to 50% in 2 min, to 85% in 15 min, held 3 min, 100 µL/min; conditions: column: Zorbax Extend-C18 2.1 x 50 mm; eluents: water / acetonitrile, 0.1% formic acid
How it was run: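 Each retention time is based on an adduct peak selected computationally and verified by manual inspection. Measurements used HPLC–quadrupole time-of-flight mass spectrometry in positive and negative ionization mode on mixtures of ~100 pure standards. Chromatography ran on a Zorbax Extend-C18 column (2.1 × 50 mm, 1.8 μm) at 100 μL/min with water and acetonitrile, each containing 0.1% formic acid, and dead and dwell volumes of 40 μL and 900 μL.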

Compound | RP-LC retention time
COc1ccc2nc(C)cc(SCC(=O)Nc3csc4nc(=O)c(C)nn34)c2c1 | 590 s
CCOC(=O)c1c(C)oc2nc(C)nc(N3CCc4cc(OC)c(OC)cc4C3C)c12 (stereo not given) | 1060 s
Cc1ccc(-c2noc(C3CCCN3S(=O)(=O)c3c(C)c(C)cc(C)c3C)n2)cc1 (stereo not given) | 788 s
CCOC(=O)C(CC)n1cccc1-c1nc(-c2cccnc2)no1 (stereo not given) | 1010 s
CCN1CCn2cc(S(=O)(=O)Nc3ccc(F)cc3C)cc2C1=O | 730 s
Fc1ccc(C2Cn3nnc(-c4nc(-c5cccnc5)no4)c3CO2)cc1 (stereo not given) | 896 s
O=C(Nc1ccc(Cl)cc1F)c1cnc(-c2ccc(F)cc2)nc1-c1ccncc1 | 992 s
O=C(NCCN1CCCCC1)C1CN(S(=O)(=O)c2cccnc2)CC12CCCCC2 (stereo not given) | 613 s
CNC(=O)c1n[nH]c2c1CC(C)CC2 (stereo not given) | 642 s
COc1ccc(NC(=O)NCCc2nc3cccnc3n2C2CCCC2)c(OC)c1 | 708 s
CCc1nc2cc(-c3noc(COc4ccccc4C)n3)ccc2o1 | 1270 s
COCCCNC(=O)C1c2cc(OC)c(OC)cc2C(=O)N(C)C1c1ccc(SC)cc1 (stereo not given) | 607 s
COc1ccc(-c2noc(CNC(=O)Nc3ccc(Cl)cc3)n2)cc1OC | 852 s
COc1cccc(S(=O)(=O)N2CCC3(CC2)NCCCN=C3NC2CCCCC2)c1 | 759 s
CC(C)CNC(=O)C1Cn2cccc2C(=O)N1C (stereo not given) | 624 s
CC(C)c1cc(C(=O)Nc2cccc(C(F)(F)F)c2)nn1C1CCS(=O)(=O)C1 (stereo not given) | 1000 s
CNC(=O)C1CCCN(c2nc3ncn(CC(=O)NCCC4=CCCCC4)c(=O)c3s2)C1 (stereo not given) | 685 s
Cn1c(=O)c2nc(S(=O)(=O)CCC(=O)Nc3cccc(Br)c3)n(C)c2n(C)c1=O | 750 s
O=C(CC(F)(F)F)N1CCCC(CCc2nnc(-c3cnccn3)o2)C1 (stereo not given) | 717 s

Compound | RP-LC retention time
COc1ccc(C(=O)N2C[C@@H]3C[C@H]2C[C@@H]3NC(=O)c2cccs2)c(C)c1 | 741 s
COc1cc(NC(=O)c2cccc([N+](=O)[O-])c2)c(OC)cc1Cl | 921 s
CCN(CC)C(=O)Cn1nc2ncccn2c1=O | 532 s
Cn1cnc2ccc(-c3noc(CNC(=O)c4cccs4)n3)cc21 | 585 s
Cc1ccc(C2Cn3nnc(-c4nc(-c5ccc(F)cc5)no4)c3CO2)c(C)c1 (stereo not given) | 1300 s
NC(=O)C1CCN(C(=O)C2CCN(C(=O)C3CC(=O)N(c4ccc(F)cc4)C3)CC2)CC1 (stereo not given) | 599 s
CC(=O)N1CC(c2nnc(C(C)C)o2)C2(CCOCC2)C1 (stereo not given) | 571 s
CC(C)(C)c1ccc(-c2nc(C3CC(=O)N(c4ccc(F)c(Cl)c4)C3)no2)cc1 (stereo not given) | 1360 s
O=C(COc1ccc(Cl)cc1)Nc1cccc2c1C(=O)NC2=O | 854 s
O=C(CN1C(=O)CCCc2cc(S(=O)(=O)N3CCCCC3)ccc21)NC1CCCCCC1 | 942 s
COc1ccc(Br)c(-c2nnc(C)o2)c1 | 797 s
CCCCN(C)C(=O)C1CCN(c2cn[nH]c(=O)c2)CC1 | 640 s
Cc1nnc(-c2cn(CC(=O)NC3CCCCCCC3)c3ccccc23)o1 | 903 s
CCCn1cc(CCNS(=O)(=O)c2ccc(CC)cc2)c2cccnc21 | 935 s
CCOCCCNC(=O)CN1C(=O)CCCc2ccccc21 | 681 s
COc1ccc(-c2noc(-c3ccc(NC(=O)c4ccc(Br)o4)cc3)n2)cc1 | 1190 s
CCOc1ccc(OCC)c(NC(=O)C2CCN(S(=O)(=O)c3cn(C(C)C)cn3)CC2)c1 | 888 s
CC(CCc1ccco1)NC(=O)C1CCc2nc(N3CCCC3)ncc2C1 (stereo not given) | 620 s
Cc1ccc(-c2nnc(CC(=O)NC3CCCCC3)o2)cc1 | 830 s

Second part, the compound after the results:

RP-LC retention time | Compound
630 s | CSc1cccc(NC(=O)c2cn3c(n2)CCCC3)c1
1040 s | CCn1nc(C)n2cc(S(=O)(=O)N3CCC(Cc4ccccc4)CC3)cc2c1=O
991 s | CC1CCCN(C(=O)c2cc3c(s2)CCN(C(=O)c2ccc(Cl)cc2)C3)C1 (stereo not given)
1250 s | CCCN1C(=O)COc2ccc(-c3noc(/C=C/c4ccccc4)n3)cc21
838 s | CC(=O)N1CCc2ccccc2C1C(=O)NCc1cccc(C(F)(F)F)c1 (stereo not given)
773 s | O=C(c1c(-c2ccccc2)nnc2ccccc12)N1CCN(c2ncccn2)CC1
916 s | COC(=O)c1c(C(=O)OC)c2c3ccccc3ccn2c1C(=O)OC
750 s | O=C(Cn1nc2c(N3CCCCCC3)nccn2c1=O)Nc1cccc(Cl)c1F
775 s | CCS(=O)(=O)N1CCc2c(c(CN(C(=O)c3ccccc3)c3ccccc3)nn2C)C1
641 s | CCCN1C(=O)C(CC(=O)N2CCOCC2)Sc2ncccc21 (stereo not given)
1080 s | COc1ccccc1-c1nc(-c2ccc(S(=O)(=O)N3CCCC3)cc2)no1
627 s | COc1ccc(OC)c(NC(=O)N2CCN(c3cc(C)nc(N4CCOCC4)n3)CC2)c1
830 s | Fc1ccc(CNc2cc(-n3cccn3)ncn2)cc1
752 s | O=c1c2c(CO)c(-c3ccccc3)nn2ccn1CCOc1ccccc1
780 s | COc1ccc(-c2ccc(=O)n(Cc3nc(-c4ccccn4)no3)n2)cc1
836 s | O=C(NC1CC1)c1cc(-c2ccccc2)ns1
879 s | Cc1cc(NC(=O)C(C)(C)C)nn1Cc1ccccc1
863 s | CCN1c2ccc(F)cc2C(=O)NC12CCN(C(=O)Cc1ccccc1Cl)CC2
919 s | COC(=O)COC(=O)c1cn(-c2ccc(F)cc2)c(=O)c2ccccc12
616 s | CC1=NS(=O)(=O)N(C)C=C1C(=O)OCc1ccccc1C
707 s | CN1C(=O)C2(CCN(C(=O)c3ccccc3)C2)c2ccccc21 (stereo not given)
822 s | Cc1ccc(NC(=O)C2CCc3nc(N4CCCCC4)ncc3C2)cc1 (stereo not given)
774 s | O=C(Cc1ccccc1)N1CCN(c2cc(-c3ccccc3)[nH]n2)CC1
657 s | COc1ccc(-c2nnc3n2CCN(Cc2scnc2C)C3)cc1
595 s | O=C(NCCCN1CCCC1)c1c2c(nc3ccccc13)C(=O)N(C1CCCCC1)C2
974 s | Cc1cc(C)c(S(=O)(=O)N2CCN(Cc3cccc(F)c3)C3(CCOCC3)C2)cc1C

RP-LC retention time | Compound
697 s | COc1ccc(C(=O)Nc2c(-c3ccc(F)cc3)nc3cc(C)ccn23)c(OC)c1
815 s | O=C(NCc1ccccc1Cl)C1CCN(S(=O)(=O)c2cc(C(=O)N3CCCC3)cs2)CC1
639 s | O=C(Nc1ccc2c(c1)OCCO2)N1CCC(Oc2ccccc2)C1 (stereo not given)
646 s | Cc1nnc2ccc(N3CCC(C(=O)N4CCN(c5ncccn5)CC4)CC3)nn12
928 s | Cc1ccc(F)cc1S(=O)(=O)NC1CCN(c2ccccc2)C1=O (stereo not given)
764 s | Cc1cc(-c2ccc(S(=O)(=O)N3CCC(C(=O)NCc4ccccc4)CC3)o2)n[nH]1
830 s | COc1ccc(N2CCN(c3cc(SCC(=O)NCc4ccc(F)cc4)ncn3)CC2)cc1
901 s | O=C1[C@H]2CN(Cc3ccc(Cl)c(F)c3)C[C@H]2C(=O)N1CCc1ccccc1
679 s | O=C(NCCc1ccccc1)N1C[C@@H]2C[C@H](NS(=O)(=O)c3cccnc3)[C@H]1C2
1070 s | O=S(=O)(c1cc(F)ccc1F)N1CCc2nc(-c3ccccc3)ncc2C1
808 s | COCCN1CC2(CCN(S(=O)(=O)c3c(C)cc(C)cc3C)CC2)C1c1ccccc1 (stereo not given)
926 s | COC(=O)c1cccc(NC(=O)CSc2cc(N3CCN(c4ccccc4OC)CC3)ncn2)c1
918 s | O=c1ccc(-c2nc(-c3ccc(Br)cc3)no2)cn1Cc1cc(=O)n2ccccc2n1
908 s | Cc1ccccc1Nc1c(-c2ccc(Cl)cc2)nc2ncccn12
1210 s | O=C(c1ccc(Cl)s1)N1CCc2nc(-c3ccc(Cl)cc3)ncc2C1
740 s | O=c1ccc(-c2nc(-c3ccc4c(c3)OCO4)no2)cn1Cc1cc(=O)n2ccccc2n1
601 s | COc1ccc(C(C)NC(=O)C2CCN(c3cncnc3N3CCOCC3)CC2)cc1 (stereo not given)
741 s | CC(C)NC(=O)C1CCCN(c2nc3ncn(CC(=O)Nc4ccccc4Cl)c(=O)c3s2)C1 (stereo not given)
715 s | COc1ccc(-c2nc3cc(C)ccn3c2NC(=O)c2cc(Br)ccc2Cl)cc1
553 s | O=C(NCc1cccnc1)C1CCN(c2cc(N3CCSCC3)ncn2)CC1
592 s | O=C(NCC(c1ccsc1)N1CCc2ccccc2C1)C(=O)NC1CCCC1 (stereo not given)
591 s | CCNC(=O)C1CCN(c2nc3ccc(-c4cccnc4)nc3s2)CC1
849 s | CCOC(=O)N1CCN(C(=O)CSc2ncnc3c2cnn3-c2ccc(F)cc2)CC1
1070 s | O=C(Nc1ccccc1)N1CCN(c2nc3ccccc3nc2C(F)(F)F)CC1
935 s | CCOC(=O)C1CCN(c2c(C#N)cnc3ccc(Cl)cc23)CC1
861 s | CCC(=O)Nc1ccc(C2(C(=O)N3CCN(c4ccccc4)CC3)CCC2)cc1
